Test results: patent US3989835A, “Method of using 6-substituted amino phenyl-2,3,5,6-tetra-hydro[2,1-b]thiazoles for controlling gastrointestinal nematodes” (American Cyanamid Company, priority 1974, dated 1976)
Where a name gives a salt, the structure may show the parent alone. Read-outs that look alike come from different tables or passages of the source.

What was measured:
in vivo = settings: for LD50: mouse, in vivo, po; for Approx. LD50 /ED50: chemotherapeutic index, mouse oral, N. dubius; for Dead/Total: mice
Source text: Data on the acute oral toxicity to mice of various single oral doses of the above compounds and several analogs were obtained by conventional procedures, (Table IX hereinafter).

Nematospiroides dubius = assay: Anthelmintic efficacy against N. dubius in mice, single oral dose; format: in vivo, Nematospiroides dubius (in albino female mice); settings: Heligmosomoides polygyrus, po; for inhibition in vivo at 40 mg/kg: single oral dose 40 mg./Kg.; for inhibition in vivo at 60 mg/kg: single oral dose 60 mg./Kg.; for inhibition in vivo at 10 mg/kg: single oral dose 10 mg./Kg.; for inhibition in vivo at 2 mg/kg: single oral dose 2.0 mg./Kg.; for inhibition in vivo at 5 mg/kg: single oral dose 5.0 mg./Kg.; for inhibition in vivo at 1.25 mg/kg: single oral dose 1.25 mg./Kg.; for inhibition in vivo at 20 mg/kg: single oral dose 20 mg./Kg.
Procedure: Albino female mice are each inoculated with about 20 infectious larvae of Nematospiroides dubius. This nematode is a representative of the economical important trichostrongylis worms of ruminants and other hosts, and of nematodes in general. Twenty-two days after inoculation, groups of four randomly selected mice containing adult N. dubius are given single oral doses of test compounds dissolved or suspended in 0.4 ml. of water per 20 gram mouse. At 26 or 27 days after inoculation, treated mice and in each test four randomly selected groups of untreated mice are necropsied. The number of worms in the small intestine of each mouse are determined by microscopic examination. Average worm numbers for each treated group and for the untreated controls are computed and the percent efficacy determined by the customary formula:
(Average Worms in Control - Average Worms in Treated)/(Average Worms in Control) X 100.

[1] = LD50, mice, adjusted to molar equivalents of tetramisole free base
[2] = molar-adjusted, read-out: Percent Nematospiroides Activity
[3] = Approx. LD50, mouse oral, Table IX
[4] = continuation of Table X (R1/R4 disubstituted), read-out: ED50
[5] = mouse oral, Table IX, read-out: Approx. ED50 vs. N. dubius
[6] = as Base, single oral dose, mice, > indicates inactive at dose shown, read-out: Approx. ED50

Compound | LD50 (in vivo; [1]) | LD50 (in vivo; [3]) | ED50 (Nematospiroides dubius; [5]) | inhibition in vivo at 10 mg/kg (Nematospiroides dubius; [2]) | ED50 (Nematospiroides dubius; [6]) | inhibition in vivo at 5 mg/kg (Nematospiroides dubius; [2]) | further results
CC(C)N(C)c1cccc(C2CN3CCSC3=N2)c1 (racemic) [CH3 N--CH(CH3)2, 6-[m-(isopropylmethylamino)phenyl]-2,3,5,6-tetrahydroimidazo[2,1-b]thiazol] | 40 to 60 mg/kg |  |  |  |  |  | inhibition in vivo at 40 mg/kg (Nematospiroides dubius; [2]): 78%; inhibition in vivo at 60 mg/kg (Nematospiroides dubius; [2]): 88%
CC(=O)Nc1ccc(Br)c(C2CN3CCSC3=N2)c1 (racemic) [R1 =COCH3 R4 =Br] |  | > 100 mg/kg | 30 mg/kg |  |  |  | ED50 (Nematospiroides dubius; [4]): 30 mg/kg
Nc1ccc(Br)c(C2CN3CCSC3=N2)c1 (racemic) [R1 =H R4 =Br, dl-6-(5-amino-2-bromophenyl)-2,3,5,6-tetrahydroimidazo[2,1-b]thiazole, dihydrochloride] | ~50 mg/kg | 40 mg/kg | 5 mg/kg | 100% |  |  | Approx. LD50 /ED50 (in vivo; Table IX): 8; Dead/Total (in vivo; single oral dose 20 Mg./Kg.): 0/6; Dead/Total (in vivo; single oral dose 40 Mg./Kg.): 2/6; Dead/Total (in vivo; single oral dose 80 Mg./Kg.): 6/6; ED50 (Nematospiroides dubius; [4]): 5 mg/kg; inhibition in vivo at 4 mg/kg (Nematospiroides dubius; single oral dose 4.0 mg./Kg., molar-adjusted, read-out: Percent Nematospiroides Activity): 43%
Nc1ccccc1C1CN2CCSC2=N1 (racemic) [dl 2HCl NH2 ortho, reference compound] |  |  |  |  | > 100 mg/kg |  | 
S=C=Nc1cccc(C2CN3CCSC3=N2)c1 (racemic) [dl Base N=C=S meta, reference compound] |  |  |  |  |  |  | ED50 (Nematospiroides dubius; read-out: Approx. ED50): 20 mg/kg
COc1cccc(C2CN3CCSC3=N2)c1 (racemic) [dl HBr OCH3 meta, reference compound] |  |  |  |  | > 10 mg/kg |  | 
Cc1cccc(C2CN3CCSC3=N2)c1 (racemic) [dl HCl CH3 meta, reference compound] |  |  |  |  | > 10 mg/kg |  | 
O=[N+]([O-])c1cccc(C2CN3CCSC3=N2)c1 (racemic) [dl HCl NO2 meta, dl-6-(m-nitrophenyl)-2,3,5,6-tetrahydroimidazo[2,1-b]thiazole hydrochloride, reference compound] |  |  |  |  | 15 mg/kg |  | 
O=[N+]([O-])c1ccccc1C1CN2CCSC2=N1 (racemic) [dl HCl NO2 ortho, reference compound] |  |  |  |  | > 100 mg/kg |  | 
O=[N+]([O-])c1cccc(C2CN3C=CSC3=N2)c1 (racemic) [dl HClO4 NO2 * meta, reference compound] |  |  |  |  | 25 mg/kg |  | 
Oc1cccc(C2CN3CCSC3=N2)c1 (racemic) [dl OH meta, reference compound] |  |  |  |  | > 10 mg/kg |  | 
CCC(=O)Nc1cccc(C2CN3CCSC3=N2)c1 (racemic) [m-NH--CO--C2 H5 dl] | 30 to 40 mg/kg | < 40 mg/kg | 2 mg/kg | 100% | 2 mg/kg | 100% | Approx. LD50 /ED50 (in vivo; Table IX): 20; Dead/Total (in vivo; single oral dose 40 Mg./Kg.): 4/5; Dead/Total (in vivo; single oral dose 60 Mg./Kg.): 4/6; Dead/Total (in vivo; single oral dose 80 Mg./Kg.): 5/5; Dead/Total (in vivo; single oral dose 100 Mg./Kg.): 6/6; inhibition in vivo at 2 mg/kg (Nematospiroides dubius; [2]): 76%
CCCC(=O)Nc1cccc(C2CN3CCSC3=N2)c1 (racemic) [m-NH--CO--C3 H7n dl] | 30 to 40 mg/kg | 40 mg/kg | 2 mg/kg | 100% | 2 mg/kg | 99% | Approx. LD50 /ED50 (in vivo; Table IX): 20; Dead/Total (in vivo; single oral dose 40 Mg./Kg.): 3/5; Dead/Total (in vivo; single oral dose 60 Mg./Kg.): 4/5; Dead/Total (in vivo; single oral dose 80 Mg./Kg.): 4/5; Dead/Total (in vivo; single oral dose 100 Mg./Kg.): 5/5; inhibition in vivo at 1.25 mg/kg (Nematospiroides dubius; [2]): 43%; inhibition in vivo at 2 mg/kg (Nematospiroides dubius; [2]): 58%
CC(C)(C)C(=O)Nc1cccc(C2CN3CCSC3=N2)c1 (racemic) [m-NH--CO--C(CH3)3 dl] | ~100 mg/kg | 100 mg/kg | 3 mg/kg | 88% | 3 mg/kg | 75% | Approx. LD50 /ED50 (in vivo; Table IX): 33; Dead/Total (in vivo; single oral dose 50 Mg./Kg.): 0/6; Dead/Total (in vivo; single oral dose 100 Mg./Kg.): 2/6; Dead/Total (in vivo; single oral dose 200 Mg./Kg.): 5/6; inhibition in vivo at 20 mg/kg (Nematospiroides dubius; [2]): 100%
O=C(Nc1cccc(C2CN3CCSC3=N2)c1)c1ccccc1 (racemic) [m-NH-CO dl] | ~60 mg/kg | 60 mg/kg | 1 mg/kg | 100% | 1 mg/kg | 100% | Approx. LD50 /ED50 (in vivo; Table IX): 60; Dead/Total (in vivo; single oral dose 40 Mg./Kg.): 0/6; Dead/Total (in vivo; single oral dose 60 Mg./Kg.): 3/6; Dead/Total (in vivo; single oral dose 80 Mg./Kg.): 4/6; Dead/Total (in vivo; single oral dose 120 Mg./Kg.): 5/6; inhibition in vivo at 1.25 mg/kg (Nematospiroides dubius; [2]): 67%; inhibition in vivo at 2 mg/kg (Nematospiroides dubius; [2]): 94%; inhibition in vivo at 20 mg/kg (Nematospiroides dubius; [2]): 100%
CC(C)(C)C(=O)Nc1cccc(C2CN3C=CSC3=N2)c1 (stereo not shown) [5,6-dihydro HN-CO-C(CH3)3, 3'-(5,6-dihydroimidazo[2,1-b]thiazol-6-yl)pivalanilide] |  |  |  | 80% | 7.5 mg/kg | 35% | 
CC(C)C(=O)Nc1cccc(C2CN3C=CSC3=N2)c1 (stereo not shown) [5,6-dihydro HN-CO-CH(CH3)2, 3'(5,6-dihydroimidazo[2,1-b]thiazol-6-yl)isobutyranilide] |  |  |  | 68% | 7.5 mg/kg | 32% | 
CC(C)N(C=O)c1cccc(C2CN3CCSC3=N2)c1 (stereo not shown) [(CH3)2 CH--N--CHO, N-isopropyl-3'-(2,3,5,6-tetrahydroimidazo[2,1-b]thiazol-6-yl) formanilide dihydrochloride] |  |  |  |  |  |  | inhibition in vivo at 40 mg/kg (Nematospiroides dubius; [2]): 99%; inhibition in vivo at 60 mg/kg (Nematospiroides dubius; [2]): 100%
